Earlier results as cited in patent publication US7575866B2, “Ligand/binding partner bio-labeling systems” (priority 2003, dated 2009).

Columns and labels:
[1] = test system: human cells
[2] = test system: human leukocytes
[3] = test system: DHFR
[4] = target: T1, Mycobacterium avium DHFR (Mycobacterium avium, UniProt O30463)
T1 sequence (O30463 1-181): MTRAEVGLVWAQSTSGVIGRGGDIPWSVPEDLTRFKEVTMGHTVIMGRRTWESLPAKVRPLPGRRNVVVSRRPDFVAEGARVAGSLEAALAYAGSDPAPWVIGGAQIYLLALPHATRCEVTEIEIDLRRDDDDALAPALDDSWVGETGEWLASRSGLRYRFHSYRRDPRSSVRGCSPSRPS

In the case of `CN(Cc1cnc2nc(N)nc(N)c2n1)c1ccc(C(=O)N[C@@H](CCC(=O)O)C(=O)O)cc1` [MTX, Methotrexate], the “extracellular concentration at which DNA damage has been observed” value [1] is listed as 10 µM and the “concentration at which toxicity observed” value [2] is listed as 2000 nM.
In the case of `CCCCc1c(CN(C)c2ccc(C(=O)N[C@@H](CCC(=O)O)C(=O)O)cc2)cnc2nc(N)nc(N)c12` [5-butyl-5-deazamethotrexate], the “inhibitory effect on DHFR lowered relative to MTX” value [3] is given as 17 fold.
For “2,4-diamino-5-[(2-methoxy-4-carboxybutyloxy)benzyl]pyrimidine”, the “selective binding to Mycobacterium avium DHFR” value [4] is listed as “selectively bind”.
